Measured values: article PMC9202051 (ACS Omega, 2022)
Read-outs that look alike come from different tables or passages of the source.

Key:
MTT cell viability assay = type: cell-based, human; conditions: human, blood mononuclear cells (MNCs)
soybean 15-LOX = molecular target: T1, soybean 15-LOX (Glycine max, UniProt P08170); assay: soybean 15-LOX inhibition assay; type: biochemical; conditions: for inhibition at 250 µM: read-out: inhibition (%) at 0.25 mM
T1 sequence (P08170 1-839): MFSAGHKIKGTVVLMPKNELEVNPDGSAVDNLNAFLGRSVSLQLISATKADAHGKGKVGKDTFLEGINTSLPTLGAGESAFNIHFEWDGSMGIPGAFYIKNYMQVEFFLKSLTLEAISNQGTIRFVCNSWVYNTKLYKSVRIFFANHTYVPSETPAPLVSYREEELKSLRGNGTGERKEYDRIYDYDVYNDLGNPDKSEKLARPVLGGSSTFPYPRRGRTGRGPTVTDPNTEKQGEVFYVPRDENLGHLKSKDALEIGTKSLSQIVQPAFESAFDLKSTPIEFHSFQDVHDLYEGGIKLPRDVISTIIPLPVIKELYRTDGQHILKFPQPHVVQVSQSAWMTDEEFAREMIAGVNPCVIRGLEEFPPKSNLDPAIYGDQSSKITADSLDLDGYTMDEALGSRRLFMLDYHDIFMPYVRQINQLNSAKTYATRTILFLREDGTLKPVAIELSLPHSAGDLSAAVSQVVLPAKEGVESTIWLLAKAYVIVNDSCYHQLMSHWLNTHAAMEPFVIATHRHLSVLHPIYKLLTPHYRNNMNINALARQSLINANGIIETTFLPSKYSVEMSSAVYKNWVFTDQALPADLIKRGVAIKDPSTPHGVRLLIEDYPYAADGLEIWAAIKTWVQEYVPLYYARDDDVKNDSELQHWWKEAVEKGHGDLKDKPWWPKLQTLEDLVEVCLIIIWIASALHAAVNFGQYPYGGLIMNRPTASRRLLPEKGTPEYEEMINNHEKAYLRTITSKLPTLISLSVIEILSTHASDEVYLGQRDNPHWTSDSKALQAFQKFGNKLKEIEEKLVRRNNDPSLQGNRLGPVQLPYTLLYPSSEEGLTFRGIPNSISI

[1] = system: blood mononuclear cells (MNCs); assay: MTT cell viability assay; type: cell-based, human; conditions: MTT assay, 0.25 mM, mononuclear cells; mean ± SEM, n = 3

Row | inhibition at 250 µM (soybean 15-LOX) [%] | IC50 (soybean 15-LOX) [µM] | Compound | viability at 0.25 mM (MTT cell viability assay) [%] | further results
1 |  |  | COc1cc(/C=C/C(=O)CC(=O)/C=C/c2ccc(O)c(OC)c2)ccc1O [curcumin, reference compound] | 73.9 ± 1.5 | 
2 | 92.6 ± 1.24 |  | O=c1c(O)c(-c2ccc(O)c(O)c2)oc2cc(O)cc(O)c12 [quercetin, reference compound] |  | 
3 |  |  | O=P1(N(CCCl)CCCl)NCCCO1 (stereo not shown) [cyclophosphamide, reference compound] | 56.5 ± 1.9 | 
4 |  |  | 2-((5-(4-Chlorophenyl)-4-(furan-2-ylmethyl)-4H-1,2,4-triazol-3-yl)thio)-N-(m-tolyl) Methylacetamide [Compound 7f] |  | cell viability (%) at 0.25 mM [1]: 90.21 ± 1.2%; inhibition (%) at 0.25 mM (soybean 15-LOX; 0.25 mM, mean ± SEM, n = 3): 82.13 ± 1.85%; IC50 (soybean 15-LOX; mean ± SEM, n = 3): 45.4 ± 0.72 µM
5 |  | 2.24 ± 0.13 | O=c1cc(-c2ccccc2)oc2cc(O)c(O)c(O)c12 [baicalein, reference compound] |  | 
6 | 89.3 ± 1.55 | 26.3 ± 0.62 | CCCNC(=O)C(C)Sc1nnc(-c2ccc(Cl)cc2)n1Cc1ccco1 (stereo not shown) [Compound 7b, 2-((5-(4-Chlorophenyl)-4-(furan-2-ylmethyl)-4H-1,2,4-triazol-3-yl)thio)-N-n-propylmethylacetamide] | 90.1 ± 1.1 | 
